“Also recorded” adds a separate entry of the source. Bridge positions count the residues as written; N and C are the ends. Ends that are not written are not given here. Peptide text beside a SMILES is read from it.
Key:
VLA-4 = molecular target: T1, VLA-4 (Homo sapiens, UniProt P05556+P13612); experiment: Jurkat interaction with soluble VCAM-1 (sVCAM-1-IgG), FACS assay of Example 6; type: cell-based; settings: for inhibition of interaction of sVCAM-1-IgG with Jurkat cells: Mn+2 and 15/7 present
T1 construct: endogenous in cells; host or cells: Jurkat cells
Excerpt: VCAM-1 was expressed as a soluble fusion protein. The construct expressed the seven extracellular domains of VCAM-1 on the N-terminus, and the human IgG1 heavy chain constant region on the C-terminus. Interaction of the soluble construct with Jurkat cells was monitored by standard FACS analysis, using a fluorescently labeled antibody directed against the construct's human IgG tail as a marker.
The activity of VLA-4 can be regulated. 15/7 is a monoclonal antibody that recognizes an activated conformation of VLA-4 and locks the molecule in the active state, thereby enhancing VLA-4-mediated cell adhesion.
Peptides of different length, and with various amino acid substitutions were synthesized based on the sequence of the CDR3 region of the antibody 21/6 (EGYYGNYGVYA) (SEQ ID No. 4). The peptides were then tested for their ability to inhibit Jurkat interaction with sVCAM-1-IgG in the FACS assay described in Example 6. IC50 values were determined for each peptide using this assay.

VLA-4 integrin = molecular target: T2, VLA-4 integrin (Homo sapiens, UniProt P05556+P13612); experiment: Adhesion of Jurkat cells to peptide-BSA conjugates coated onto plastic; type: cell-based; settings: peptide conjugated to carrier protein, exposed to the plastic at 3 µg/mL; Figure 1
T2 construct: endogenous in cells; host or cells: Jurkat cells
Procedure: The peptide used in this example was synthesized based on the sequence of the anti-α4 integrin antibody 21/6 (CGGEGYYGNYGVYA, SEQ ID No. 1). In this example the peptide was conjugated to a large carrier protein via the linker region that was synthesized as part of the peptide itself (in italics). The conjugated peptide was then coated onto plastic, and the ability of the conjugate to support cell adhesion was tested. This method is based on a report by Wayner and Kovach^40.
As a positive control, the fibronectin peptide described by Wayner was synthesized, conjugated to carrier protein, and tested for cell adhesion in parallel with SEQ ID NO. 1 (CGGEILDVPST, SEQ ID No. 2). Both peptide conjugates were exposed to the plastic at a concentration of 3 µg/mL. […] Adhesion was not affected by an antibody against β2 integrin (IOT18), a distinct cell adhesion molecule that is also expressed on the surface of Jurkat cells. Thus, like peptide SEQ ID NO. 2, peptide SEQ ID NO. 1 interacts with Jurkat in an α4 integrin-specific fashion.

T1 sequence (P13612 34-1032): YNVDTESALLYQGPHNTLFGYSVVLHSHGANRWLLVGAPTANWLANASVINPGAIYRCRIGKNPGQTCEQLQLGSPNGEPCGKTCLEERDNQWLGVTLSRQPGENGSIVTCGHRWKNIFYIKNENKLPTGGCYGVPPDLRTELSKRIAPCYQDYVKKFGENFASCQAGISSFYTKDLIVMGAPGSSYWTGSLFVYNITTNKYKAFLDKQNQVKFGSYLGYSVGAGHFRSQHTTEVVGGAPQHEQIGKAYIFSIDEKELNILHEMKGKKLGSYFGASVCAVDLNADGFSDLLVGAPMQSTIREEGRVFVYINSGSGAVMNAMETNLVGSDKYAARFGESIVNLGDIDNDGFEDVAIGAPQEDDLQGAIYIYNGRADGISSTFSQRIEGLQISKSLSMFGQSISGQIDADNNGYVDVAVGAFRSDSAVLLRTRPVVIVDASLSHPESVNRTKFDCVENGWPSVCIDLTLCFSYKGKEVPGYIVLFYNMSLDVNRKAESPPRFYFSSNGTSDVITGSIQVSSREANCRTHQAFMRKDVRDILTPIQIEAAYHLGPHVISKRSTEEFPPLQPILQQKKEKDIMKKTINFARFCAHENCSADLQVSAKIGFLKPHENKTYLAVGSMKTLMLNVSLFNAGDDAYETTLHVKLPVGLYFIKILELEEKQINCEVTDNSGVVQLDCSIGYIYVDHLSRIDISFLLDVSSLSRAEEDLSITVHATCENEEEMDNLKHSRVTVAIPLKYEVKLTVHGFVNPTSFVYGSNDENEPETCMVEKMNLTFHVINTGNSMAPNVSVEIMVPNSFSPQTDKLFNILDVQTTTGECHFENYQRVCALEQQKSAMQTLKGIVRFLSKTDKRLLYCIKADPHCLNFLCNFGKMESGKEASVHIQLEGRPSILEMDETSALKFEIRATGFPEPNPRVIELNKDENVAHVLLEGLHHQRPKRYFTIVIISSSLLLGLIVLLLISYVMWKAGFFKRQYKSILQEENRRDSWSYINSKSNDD
T1 sequence (P05556 21-798): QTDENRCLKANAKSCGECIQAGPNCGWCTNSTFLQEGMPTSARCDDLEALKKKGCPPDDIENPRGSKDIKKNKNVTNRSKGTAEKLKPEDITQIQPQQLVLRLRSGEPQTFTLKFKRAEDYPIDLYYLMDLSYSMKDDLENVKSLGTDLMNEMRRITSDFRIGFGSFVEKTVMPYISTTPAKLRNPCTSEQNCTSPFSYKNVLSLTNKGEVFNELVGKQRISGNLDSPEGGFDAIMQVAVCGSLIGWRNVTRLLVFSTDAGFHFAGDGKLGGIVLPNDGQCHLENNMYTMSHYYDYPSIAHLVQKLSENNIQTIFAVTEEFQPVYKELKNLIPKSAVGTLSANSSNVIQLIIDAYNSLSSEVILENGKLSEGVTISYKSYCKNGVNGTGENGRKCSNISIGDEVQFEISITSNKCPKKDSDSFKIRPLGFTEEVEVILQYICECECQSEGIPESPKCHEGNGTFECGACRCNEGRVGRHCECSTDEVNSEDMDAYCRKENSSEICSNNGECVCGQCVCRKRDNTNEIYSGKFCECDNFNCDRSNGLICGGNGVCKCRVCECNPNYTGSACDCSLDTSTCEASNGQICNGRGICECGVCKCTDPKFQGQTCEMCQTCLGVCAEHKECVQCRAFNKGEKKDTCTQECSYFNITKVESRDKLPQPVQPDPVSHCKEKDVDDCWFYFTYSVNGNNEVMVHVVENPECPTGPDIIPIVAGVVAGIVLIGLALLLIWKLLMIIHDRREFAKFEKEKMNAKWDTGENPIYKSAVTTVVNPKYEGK
T2 sequence (P13612 34-1032): as the sequence (P13612 34-1032) above
T2 sequence (P05556 21-798): as the sequence (P05556 21-798) above

| Molecule | inhibition of interaction of sVCAM-1-IgG with Jurkat cells (VLA-4; result in words) | adhesion of Jurkat cells to immobilized peptide conjugate (VLA-4 integrin) | further results |
| --- | --- | --- | --- |
| STLTMNPVSF [SEQ ID No. 40] | inhibitory; also recorded: quite active in a linear form |  |  |
| CGGEILDVPST [SEQ ID No. 2, fibronectin peptide described by Wayner, conjugated to carrier protein; positive control, reference compound] |  | bound equally well |  |
| NC(=O)C[C@@H]1NC(=O)CNC(=O)[C@H](Cc2ccccc2)NC(=O)[C@H](Cc2ccc(O)cc2)NC(=O)[C@@H](N)CSSC[C@@H](C(=O)O)NC(=O)[C@H](Cc2ccc(O)cc2)NC(=O)[C@H](CO)NC(=O)[C@H](Cc2c[nH]cn2)NC(=O)[C@H](CCC(=O)O)NC1=O [SEQ ID No. 63] (H-CYFGNEHSYC-OH; disulfide 1-10) |  |  | IC50 (VLA-4; per Example 6: inhibition of Jurkat interaction with sVCAM-1-IgG, FACS, in the presence of Mn+2 and 15/7): ≤ 50 µM |
| CGGEGYYGNYGVYA [SEQ ID No. 1] |  | bound equally well |  |
| CC[C@H](C)[C@@H]1NC(=O)[C@H](CCC(N)=O)NC(=O)[C@H]([C@@H](C)O)NC(=O)[C@H](CCCNC(=N)N)NC(=O)[C@@H](N)CSSC[C@@H](C(=O)O)NC(=O)[C@H](CO)NC(=O)[C@H](CC(=O)O)NC1=O [SEQ ID No. 35] (H-CRTQIDSC-OH; disulfide 1-8) |  |  | inhibitory activity compared with parent or linear peptide (VLA-4; result in words, relative to SEQ ID No. 4 (Nos. 27, 17) or SEQ ID No. 34 (No. 35)): more active than the linear peptide |
| NC(=O)C[C@@H]1NC(=O)CNC(=O)[C@H](Cc2ccccc2)NC(=O)CNC(=O)[C@@H](N)CSSC[C@@H](C(=O)O)NC(=O)[C@H](Cc2ccc(O)cc2)NC(=O)[C@H](CO)NC(=O)[C@H](Cc2c[nH]cn2)NC(=O)[C@H](CCC(=O)O)NC1=O [SEQ ID No. 31] (H-CGFGNEHSYC-OH; disulfide 1-10) | particularly good inhibition |  |  |

Reference: EP0769958B1, “INHIBITORS OF LEUKOCYTE ADHESION” (ATHENA NEUROSCIENCES, INC., priority 1994, dated 1996)
